Results taken from ChEMBL document CHEMBL4476887, “Lysyl oxidase-like 2 inhibitors and uses thereof” (2018).

Target: T1, Lysyl oxidase homolog 2 (Homo sapiens, UniProt Q9Y4K0)
T1 sequence (Q9Y4K0 whole entry): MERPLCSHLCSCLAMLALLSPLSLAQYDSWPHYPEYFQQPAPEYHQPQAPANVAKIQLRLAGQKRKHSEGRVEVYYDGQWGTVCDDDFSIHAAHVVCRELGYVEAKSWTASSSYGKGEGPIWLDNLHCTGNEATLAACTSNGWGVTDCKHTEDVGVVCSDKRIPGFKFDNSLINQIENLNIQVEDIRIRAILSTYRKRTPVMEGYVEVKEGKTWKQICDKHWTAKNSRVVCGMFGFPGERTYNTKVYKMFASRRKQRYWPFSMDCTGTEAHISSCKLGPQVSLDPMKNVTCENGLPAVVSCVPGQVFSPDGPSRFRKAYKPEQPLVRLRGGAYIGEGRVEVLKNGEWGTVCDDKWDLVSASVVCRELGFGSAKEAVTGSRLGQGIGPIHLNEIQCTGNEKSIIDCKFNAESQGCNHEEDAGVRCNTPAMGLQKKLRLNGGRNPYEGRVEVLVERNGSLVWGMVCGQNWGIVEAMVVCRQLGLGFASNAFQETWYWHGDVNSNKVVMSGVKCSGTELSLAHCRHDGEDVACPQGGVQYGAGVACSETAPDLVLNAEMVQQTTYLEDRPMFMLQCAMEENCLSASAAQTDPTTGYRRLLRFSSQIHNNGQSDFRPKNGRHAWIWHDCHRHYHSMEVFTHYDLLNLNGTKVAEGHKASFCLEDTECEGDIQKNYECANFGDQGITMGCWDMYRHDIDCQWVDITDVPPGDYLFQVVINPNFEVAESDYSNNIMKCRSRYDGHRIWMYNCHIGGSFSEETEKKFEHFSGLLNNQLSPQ
Experiment: Inhibition of human LOXL2 expressed in CHO cells incubated for 2 hrs followed by 1,5-Diaminopentane addition by Amplex Red fluorescence based assay
Type: cell-based

Work on `NCCc1nc(-c2ccccc2)cs1` yielded an IC50 of 300 to 1000 nM.

Compound `NCc1nc2ccccc2s1` has an IC50 of under 300 nM.

`NCc1cc2ccccc2s1` gave an IC50 of 300 to 1000 nM.

`NCCc1nc2ccccc2s1` was tested, and the IC50 was under 300 nM.

Work on `NCc1nc2ccccc2[nH]1` yielded an IC50 of under 300 nM.

`NCc1cc2cc(Br)ccc2o1` was tested, and the IC50 was over 1000 nM.

`NCCc1nc2ccc(F)cc2[nH]1` was tested, and the IC50 was over 1000 nM.

Compound `NCc1cnccn1` has an IC50 of under 300 nM.

`NCc1cc2ccc(-c3cnc4ccccc4c3)cc2c(=O)[nH]1` showed an IC50 of under 300 nM.

`NCCc1nc2cccc(Cl)c2o1` was tested, and the IC50 was under 300 nM.

`NCCc1cc2ccccc2o1` showed an IC50 of over 1000 nM.

For `NCc1cc(Oc2cccc(C(=O)Nc3ccccc3)c2)n2nccc2n1`, the IC50 was 300 to 1000 nM.

`NCCc1nc2cc(Cl)ccc2s1` showed an IC50 of under 300 nM.

Work on `NCc1cc2ccc(-c3cncc(C(=O)Nc4ccccc4)c3)cc2s1` yielded an IC50 of under 300 nM.

Work on `NCCc1cc2ccccc2[nH]1` yielded an IC50 of over 1000 nM.

Compound `NCCc1cc2ccccc2s1` has an IC50 of over 1000 nM.

With `Cc1cc(Br)cc2cc(CN)oc12` the IC50 was under 300 nM.

Work on `CC(C)(C)c1ccc2sc(CN)cc2c1` yielded an IC50 of under 300 nM.

`NCc1cc2ccc(Br)cc2c(=O)[nH]1` gave an IC50 of under 300 nM.

In the case of `NCc1cc2cc(-c3cccnc3)ccc2[nH]1`, the IC50 is reported as under 300 nM.

`NCc1nc2cc(Cl)ccc2[nH]1` gave an IC50 of under 300 nM.

`COc1ncccc1-c1ccc2[nH]c(CN)cc2c1` showed an IC50 of 300 to 1000 nM.

`NCCc1nc2cc(F)ccc2s1` showed an IC50 of under 300 nM.

Compound `NCCc1nc2cc(Cl)ccc2o1` has an IC50 of under 300 nM.

`NCc1cc2ccc(-c3ccc(C(=O)Nc4ccccc4)nc3)cc2s1` gave an IC50 of under 300 nM.

Work on `COc1ccc2[nH]c(CN)cc2c1` yielded an IC50 of 300 to 1000 nM.

Work on `Cn1cc(-c2ccc3[nH]c(CN)cc3c2)cn1` yielded an IC50 of 300 to 1000 nM.

`Cc1c(CN)oc2ccc(F)cc12` was tested, and the IC50 was over 1000 nM.

`NCCc1nc2cc(Cl)ccc2[nH]1` showed an IC50 of over 1000 nM.

In the case of `NCc1ccnc(Oc2cccc(C(=O)Nc3ccccc3)c2)n1`, the IC50 is reported as 300 to 1000 nM.

For `NCc1cc2ccncc2[nH]1`, the IC50 was under 300 nM.

For `NCc1cnnc(Oc2cccc(C(=O)Nc3ccccc3)c2)c1`, the IC50 was under 300 nM.

In the case of `NCc1cc2c(cn1)ncn2-c1cccc(C(=O)Nc2ccccc2)c1`, the IC50 is reported as under 300 nM.

Compound `NCCc1nn2cnnc2s1` has an IC50 of over 1000 nM.

Compound `NCc1cc2cc(C3CC3)ccc2s1` has an IC50 of under 300 nM.

For `NCc1cc2cc(-c3ccc(OCc4ccccc4)nc3)ccc2[nH]1`, the IC50 was 300 to 1000 nM.

`NCc1cc2cc(-c3cncc(O)c3)ccc2[nH]1` showed an IC50 of 300 to 1000 nM.

With `NCc1nc2cc3ccccc3cc2[nH]1` the IC50 was under 300 nM.

`NCc1cc2ccccc2c(=O)[nH]1` showed an IC50 of 300 to 1000 nM.

With `NCc1cc2ccc(C#Cc3ccccc3)cc2c(=O)[nH]1` the IC50 was under 300 nM.

In the case of `NCc1cc2ccc(Br)cc2s1`, the IC50 is reported as under 300 nM.

Work on `Cn1c(CN)cc2ccccc21` yielded an IC50 of over 1000 nM.

With `NCC1=CC(=O)c2ccccc2C1=O` the IC50 was under 300 nM.

`NCc1nc2cc(Cl)ccc2s1` showed an IC50 of 300 to 1000 nM.

For `NCc1cc(=O)[nH]c2ccccc12`, the IC50 was over 1000 nM.

Work on `NCc1ccnnc1` yielded an IC50 of 300 to 1000 nM.

Work on `NCCc1nc2ccccc2o1` yielded an IC50 of 300 to 1000 nM.

Work on `NCc1cc(Nc2cccc(C(=O)Nc3ccccc3)c2)n2ccnc2n1` yielded an IC50 of under 300 nM.

`NCc1nc2ccccc2o1` was tested, and the IC50 was over 1000 nM.

In the case of `NCc1cc2ccc(-c3cncc(C(=O)NCc4ccccc4)c3)cc2s1`, the IC50 is reported as under 300 nM.

For `NCc1cc2cc(-c3cccnc3)ccc2s1`, the IC50 was under 300 nM.

Work on `NCc1cc2cc(F)ccc2[nH]1` yielded an IC50 of over 1000 nM.

With `NCc1cc2c(cn1)ncn2Cc1cccc(C(=O)Nc2ccccc2)c1` the IC50 was over 1000 nM.

Compound `NCc1cccnn1` has an IC50 of under 300 nM.

With `Cc1c(F)ccc2cc(CN)[nH]c12` the IC50 was over 1000 nM.

In the case of `NCc1ccc2[nH]cnc2c1`, the IC50 is reported as over 1000 nM.

`NCc1sc2ccccc2c1Cl` showed an IC50 of 300 to 1000 nM.

`NCc1cc2ncccc2[nH]1` was tested, and the IC50 was under 300 nM.

`NCc1cc(=O)c2cc(Br)ccc2s1` gave an IC50 of under 300 nM.

`NCc1cc2cc(F)ccc2s1` gave an IC50 of under 300 nM.

For `NCc1nc2cc(Br)cnc2[nH]1`, the IC50 was under 300 nM.

`C#Cc1ccc2cc(CN)[nH]c(=O)c2c1` gave an IC50 of under 300 nM.

Compound `NCc1cc(O)n2nccc2n1` has an IC50 of 300 to 1000 nM.

With `NCc1cc2cc(-c3ccc(Oc4ccccc4)nc3)ccc2[nH]1` the IC50 was under 300 nM.

Compound `COc1ccc(-c2ccc3[nH]c(CN)cc3c2)cn1` has an IC50 of 300 to 1000 nM.

`NCc1cc2ccc(-n3cc(Br)cn3)cc2c(=O)[nH]1` gave an IC50 of under 300 nM.

`NCc1ccc2ncccc2c1` showed an IC50 of over 1000 nM.

Work on `NCc1cc2cc(I)ccc2[nH]1` yielded an IC50 of under 300 nM.

`NCc1cc2cc(-c3cncc4ccccc34)ccc2[nH]1` gave an IC50 of under 300 nM.

With `NCCc1nc(-c2ccncc2)cs1` the IC50 was 300 to 1000 nM.

Work on `Cn1cnc2ccc(-c3ccc4[nH]c(CN)cc4c3)cc21` yielded an IC50 of under 300 nM.

With `NCc1cc2ccc(-c3cccnc3)cc2s1` the IC50 was under 300 nM.

With `NCc1cc2cc(-c3ccc4nccn4c3)ccc2[nH]1` the IC50 was under 300 nM.

`COC(=O)c1cncc(-c2ccc3[nH]c(CN)cc3c2)c1` was tested, and the IC50 was under 300 nM.

Work on `NCc1cc2cc(Cl)ccc2[nH]1` yielded an IC50 of 300 to 1000 nM.

`Cc1ccc2[nH]c(CN)cc2c1` was tested, and the IC50 was 300 to 1000 nM.

With `NCc1cc2ccccc2o1` the IC50 was 300 to 1000 nM.

Work on `NCc1ccc2[nH]ccc2n1` yielded an IC50 of over 1000 nM.

With `COc1ccc2cc(CN)[nH]c(=O)c2c1` the IC50 was under 300 nM.

Compound `NCc1cc2ccc(-c3ccc(F)cc3)cc2c(=O)[nH]1` has an IC50 of under 300 nM.

For `NCc1cc2cc(Br)ccc2s1`, the IC50 was under 300 nM.

With `NCCc1nc2ccccc2[nH]1` the IC50 was over 1000 nM.

`NCc1cc2cc(-c3ccc(F)cc3)ccc2[nH]1` was tested, and the IC50 was under 300 nM.

For `NCc1cc2cc(-c3cnc4ccccc4c3)ccc2[nH]1`, the IC50 was under 300 nM.

`CC(C)(C)c1ccc2oc(CN)nc2c1` showed an IC50 of under 300 nM.

In the case of `NCc1cc2cc(Br)ccc2[nH]1`, the IC50 is reported as under 300 nM.

`NCc1cc(Oc2cccc(C(=O)Nc3ccccc3)c2)n2ccnc2n1` showed an IC50 of under 300 nM.

Compound `NCc1cc2occc2s1` has an IC50 of over 1000 nM.

In the case of `NCc1nc2ncccc2[nH]1`, the IC50 is reported as under 300 nM.

Work on `NCc1cc2ccc(-c3ccccc3)cc2c(=O)[nH]1` yielded an IC50 of under 300 nM.

Compound `CC(CN)c1nc2ccccc2s1` (racemic) has an IC50 of 300 to 1000 nM.

`NCC(O)c1cc2ccccc2s1` (racemic) showed an IC50 of over 1000 nM.

With `NCc1cc2ccccc2[nH]1` [2-INDOLYLMETHANAMINE] the IC50 was 300 to 1000 nM.
